The source of these data is patent US20240052305A1, “CHEMICAL INDUCTION METHOD FOR PHOTORECEPTOR NEURON CELLS” (IREGENE THERAPEUTICS LTD, priority 2020, published 2024).

This assay relates to photoreceptor neuron cells. The experiment in a line: Screening test of vitamin B12 concentration (Q-PCR of photoreceptor neuron cells). Format: cell-based, human. The method, then: The screening test of vitamin B12 concentration was carried out with reference to Example 2.3, and the expression difference of photoreceptor neuron cells obtained by using different concentrations of vitamin B12 was compared. See Table 2 and Table 4 for the details of primers used. […] Therefore, the concentration of vitamin B12 used in the present invention was the optimal concentration.

vitamin B12: the “photoreceptor non-specific marker PAX6 versus concentration” value (Q-PCR, FIG. 6b) is reported as “positively correlated”. The “relative expression of PAX6” value (concentration too high) is listed as “decrease in the relative expression of PAX6”.
